Results: patent publication US9579325B2, “Modulators of TNF-α signaling” (Genzyme Corporation, priority 2000, dated 2017)
pIC50: −log10 of the molar value.

Columns and labels:
[1] = tested on: Vascular Cell Adhesion Molecule (VCAM) expression in primary human umbilical vein endothelial cells; assay: VCAM High Throughput Screen (TNF-α driven VCAM expression); format: cell-based; conditions: HUVEC, TNF 1.0 ng/ml
Text: Description of Table V: The results shown in Table V were obtained using the TNF-α assays performed as described in the protocols entitled “Method for TNF High Throughput Screen” and “Method for VCAM High Throughput Screen”, which are detailed below. These assays measure a cellular response to TNF-α stimulation, and the data published in the table are expressed as percentage inhibitions. Percentage inhibition is computed on a scale of 0 to 100% where 0 percent inhibition means the compound has no effect in the assay (the response is indistinguishable from TNF-α treatment alone), and 100% inhibition means that when the compound is present at the stated concentration, the response in the assay is the same as if TNF-α were not added. These two assays measure two different outcomes of TNF-α treatment, cell death and Vascular Cell Adhesion Molecule (VCAM) expression, and capture two of TNF-α's many biological effects. TNF-α induced apoptosis is a mechanism by which TNF-α production during immune/inflammatory responses can lead to direct cellular and tissue damage. TNF-α VCAM expression in endothelial cells is a response that allows leukocytes to leave the blood and enter a site of immune/inflammatory response. Both of these activities could lead to pathology in immune/inflammatory diseases. In the first column of the table, the percentage inhibition of the TNF-α driven apoptosis assay when the compounds are tested at 1 μM concentration is presented. The second column in the table lists the IC50 for the compound, a standard measure using a dilution series in the assay, and fitting a sigmoidal curve to the resulting dose-response curve. The IC50 is the concentration (derived analytically from the sigmoidal function) at which the compound would inhibit 50% of the response in the assay. The third and fourth column list the corresponding analysis for the TNF-α driven VCAM assay. In Table VI, data corresponding to the data in column 1 of Table V is shown, with human cells replacing the mouse cells used in the high throughput screen. […] As a consequence, the compounds will have use in treating more than one TNF-α mediated condition, and may be selected according to the manner in which the condition manifests. This corresponds to the use of these compounds in the treatment of human disease.
• 1. Plate 4×10^4 L929 cells in 100 μl of complete EMEM in Costar 96 well plates in PM. • 2. The next day, pretreat with compound, inhibitor and control vehicle for 2 hours. • 3. After 2 hours pretreatment, add 10 μl 5 ng/ml human TNF-α and actinomycin D (40 μg/ml final concentration). • 4. Incubate overnight. • 5. In AM, remove supernatant. • 6. Wash on a plate washer (0.9% NaCl). • 7. […] Shake plates on orbital shaker and read at 595 nm on plate reader. […]

[2] = Pharmacokinetic parameters; format: in vivo; conditions: in vivo
SJL mouse strain = assay: Experimental Allergic Encephalitis (murine model of multiple sclerosis); format: in vivo
Procedure: SJL mouse strain were immunized subcutaneously with proteolipid peptide amino acid residues 139-151 in Complete Freund's Adjuvant. Pertussis toxin was injected intravenously on day 1 and 3 post-induction. Weight loss occurred at day 7 post-immunization with paralysis ensuing between days 9 and 14 post-immunization.

Structure (SMILES): N#Cc1cccc(C(C(=O)NCC(c2ccccc2)c2ccccc2)N(CCc2c[nH]cn2)C(=O)c2ccccc2C(=O)c2ccccc2)c1 (stereo not drawn) [Compound 44]
- pIC50 [1]: 4.61
- bioavailability ([2]; po, species not given): 26%
- half-life ([2]; unit and species not given, read-out: Pharmacokinetic Parameters t1/2 (converted)): 2.3 h
- % inhibition of disease (SJL mouse strain; Induction regimen, 15 mgs/kg/day/i.p. from day 1-21, P = 0.06): 44.0%
- activity disease severity score (ADSS) at last day of dosing, treated (vs. control) (SJL mouse strain; Induction regimen, 15 mgs/kg/day/i.p. from day 1-21, control 3.35): 1.9/3.35
- % Survival of treated (vs. % survival of controls) (SJL mouse strain; Induction regimen, 15 mgs/kg/day/i.p. from day 1-21, controls 50): 75 vs. 50%
- activity disease severity score (ADSS) at last day of dosing, treated (vs. control) (SJL mouse strain; Induction regimen, 75 mgs/kg/day/i.p. from day 1-21, control 3.35): 0.8/3.35
- % Survival of treated (vs. % survival of controls) (SJL mouse strain; Induction regimen, 75 mgs/kg/day/i.p. from day 1-21, controls 50): 100 vs. 50%
- % inhibition of disease (SJL mouse strain; Induction regimen, 75 mgs/kg/day/i.p. from day 1-21, p = 0.001): 75.7%
- activity disease severity score (ADSS) at last day of dosing, treated (vs. control) (SJL mouse strain; Oral therapeutic regimen, 75 mgs/kg/day/i.p. from day 7-28, control 4.4): 2.2/4.4
- % Survival of treated (vs. % survival of controls) (SJL mouse strain; Oral therapeutic regimen, 75 mgs/kg/day/i.p. from day 7-28, controls 20): 89 vs. 20%
- % inhibition of disease (SJL mouse strain; Oral therapeutic regimen, 75 mgs/kg/day/i.p. from day 7-28, p = 0.002): 50%
- activity disease severity score (ADSS) at last day of dosing, treated (vs. control) (SJL mouse strain; Therapeutic regimen, 15 mgs/kg/day/i.p. from day 7-21, control 4.6): 2.6/4.6
- % Survival of treated (vs. % survival of controls) (SJL mouse strain; Therapeutic regimen, 15 mgs/kg/day/i.p. from day 7-21, controls 11): 70 vs. 11%
- % inhibition of disease (SJL mouse strain; Therapeutic regimen, 15 mgs/kg/day/i.p. from day 7-21, p = 0.08): 43.5%
- activity disease severity score (ADSS) at last day of dosing, treated (vs. control) (SJL mouse strain; Therapeutic regimen, 75 mgs/kg/day/i.p. from day 7-21, control 4.6): 1.1/4.6
- % Survival of treated (vs. % survival of controls) (SJL mouse strain; Therapeutic regimen, 75 mgs/kg/day/i.p. from day 7-21, controls 11): 100 vs. 11%
- % inhibition of disease (SJL mouse strain; Therapeutic regimen, 75 mgs/kg/day/i.p. from day 7-21, p = 0.001): 76.1%
